Among the data in ChEMBL document CHEMBL3351687, “Crystallographic and receptor binding characterization of Plasmodium falciparum macrophage migration inhibitory factor complexed to two potent inhibitors” (J Med Chem, 2014) are inhibition values, retold here.

Assay [1] has as its target T1, Macrophage migration inhibitory factor (Homo sapiens) (UniProt P14174).
T1 sequence (whole entry): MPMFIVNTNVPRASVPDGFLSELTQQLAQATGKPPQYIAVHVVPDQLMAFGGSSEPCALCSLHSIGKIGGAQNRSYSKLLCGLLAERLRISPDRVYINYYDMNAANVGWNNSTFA
Briefly: Inhibition of recombinant human macrophage migration inhibitory factor binding to human ectodomain CD74 at 0.1 to 2.5 uM.

In the next assay the test system is Plasmodium falciparum. Briefly: Inhibition of purified full-length biotinylated-Plasmodium falciparum macrophage migration inhibitory factor binding to human sCD74 at 2.5 uM after 45 mins.

Active and inactive are the calls of the source. The calls are words filed in the database; no cut-off is given here.

Broadly, the inhibition is the change of the read-out against control, counted positive when it falls.

Consider `Cc1cc(Oc2cccc(O)c2)cc(-c2ccccc2)n1`, for which, in assay [1], the inhibition result was “inactive”. Besides, the inhibition in the assay with Plasmodium falciparum amounted to 25%.
As for `COc1ccc(-c2cc(Oc3cc(C)cc(OC)c3)cc(C)n2)cc1`, the inhibition entry in assay [1] is “inactive”. Further, the inhibition with Plasmodium falciparum is 75%.
